The values that follow are results of earlier work, collected in PMC6974622, “DeepMalaria: Artificial Intelligence Driven Discovery of Potent Antiplasmodials” (Frontiers in Pharmacology, 2020).

Values joined by “and” are separate entries in the source; they are usually repeats but may differ in a detail not shown here. Identical values can stand only once. Counter-ions that a name gives are not always drawn. *1 amine or outer side, *2 acyl side, *3 side chain or, on linkers, in order; H or OH if unused. Where a SMILES comes first, the peptide text is derived from it. Bridges are numbered along the chain shown (N, C = ends). Roman numbers before positions name the chains, in order. [ ]: non-standard residue; d: D form. Actinocin(1to9) = Cc1c2oc3c(C)ccc(C(=O)[*:2])c3nc-2c(C(=O)[*:1])c(N)c1=O; Actinocin(9to1) = Cc1c2oc3c(C)ccc(C(=O)[*:1])c3nc-2c(C(=O)[*:2])c(N)c1=O; NMeV = CN[C@H](C(=O)O)C(C)C; Sar = CNCC(=O)O

One data set concerns 3D7. More on the design: unit not given here. As to conditions: cited from earlier work.
`O=P1(N(CCCl)CCCl)NCCCO1` (stereo not drawn) [Cyclophosphamide]: the 3D7 is recorded as 56.2.

With `COC(=O)C1=C(C)NC(C)=C(C(=O)OCCCN2CCC(c3ccccc3)(c3ccccc3)CC2)[C@H]1c1cccc([N+](=O)[O-])c1` [Niguldipine], the 3D7 is given as 89.3.

As to `CC[C@]1(O)C[C@@H]2CN(CCc3c([nH]c4ccccc34)[C@@](C(=O)OC)(c3cc4c(cc3OC)N(C)[C@H]3[C@@](O)(C(N)=O)[C@H](O)[C@]5(CC)C=CCN6CC[C@]43[C@@H]65)C2)C1` [Vindesine], the 3D7 is on record as 81.9.

Consider `CC[C@H](C)[C@@H]1NC(=O)[C@@H](NC(=O)c2c3nc4c(C(=O)N[C@@H]5C(=O)N[C@@H](C(C)C)C(=O)N6CCC[C@H]6C(=O)N(C)CC(=O)N(C)[C@@H](C(C)C)C(=O)O[C@@H]5C)ccc(C)c4oc-3c(C)c(=O)c2N)[C@@H](C)OC(=O)[C@H](C(C)C)N(C)C(=O)CN(C)C(=O)[C@@H]2CCCN2C1=O` [Cactinomycin] (I: TIP[Sar][NMeV] / II: TVP[Sar][NMeV]; ester I:1-I:C, II:1-II:C; linker I:N-II:N via Actinocin(1to9)), for which the 3D7 is listed as 99.

The data set is the same for the next values; noted with them: repurposing dataset, 179 approved drugs; ref https://www.nature.com/articles/nchembio806; cited from earlier work.
Regarding `Oc1c(Br)cc(Br)c2cccnc12` [Broxyquinoline], the 3D7 is reported as 90.8.

As to `COc1ccc(CCN(C)CCCC(C#N)(c2ccc(OC)c(OC)c2)C(C)C)cc1OC` (stereo not drawn) [Verapamil], the 3D7 is 98.

For `CCCCC(CC)CNC(=N)NC(=N)NCCCCCCNC(=N)NC(=N)NCC(CC)CCCC` (stereo not drawn) [Alexidine], the 3D7 is listed as 99.5.

For Heparin, the 3D7 is given as 79.9.

In the case of `C=C[C@H]1CN2CC[C@H]1C[C@H]2[C@H](O)c1ccnc2ccccc12` [Cinchonidine], the 3D7 is 97.

Consider `COc1cccc2c1C(=O)c1c(O)c3c(c(O)c1C2=O)C[C@@](O)(C(C)=O)C[C@@H]3O[C@H]1C[C@H](N)[C@H](O)[C@H](C)O1` [Daunorubicin], for which the 3D7 is 99.6.

On to `N=C(N)c1ccc(OCCCCCOc2ccc(C(=N)N)cc2)cc1` [Pentamidine isethionate], for which the 3D7 is 99.1.

Take `C[C@H]1[C@H](OC(=O)CCC(=O)O)O[C@@H]2O[C@@]3(C)CC[C@H]4[C@H](C)CC[C@@H]1[C@@]24OO3` [Artesunate]: the 3D7 is on record as 98.7.

In the case of `O.O.O.O=C([O-])[C@H]([O-])[C@@H]([O-])C(=O)[O-].O=C([O-])[C@H]([O-])[C@@H]([O-])C(=O)[O-].[K+].[K+].[Sb+3].[Sb+3]` [Potassium antimonyl tartrate], the 3D7 is 95.5.

As to `C[N+](C)(CCOc1ccccc1)Cc1ccccc1.O=C(O)c1cc2ccccc2cc1[O-]` [Bephenium hydroxynaphthoate], the 3D7 was 70.2.

Regarding `CCc1nc(N)nc(N)c1-c1ccc(Cl)cc1` [Pyrimethamine], the 3D7 was 96.5.

For the compound `CCC(=O)c1ccc2c(c1)N(CC(C)N(C)C)c1ccccc1S2.O=C(O)/C=C\C(=O)O` (stereo not drawn) [Propiomazine maleate], the 3D7 is 77.

Turning to Gramicidin A, the 3D7 is recorded as 98.5.

Regarding `N[C@@H](Cc1ccc(N(CCCl)CCCl)cc1)C(=O)O` [Melphalan], the 3D7 is 59.5.

For `CC(C)N1CCN(c2ccc(OCC3COC(Cn4cncn4)(c4ccc(Cl)cc4Cl)O3)cc2)CC1` (stereo not drawn) [Terconazole], the 3D7 was 56.

As to `CC[C@@]1(O)C(=O)OCc2c1cc1n(c2=O)Cc2cc3c(CN(C)C)c(O)ccc3nc2-1` [Topotecan], the 3D7 was 80.1.

With `Clc1ccc2c(c1)CCc1cccnc1C2=C1CCNCC1` [Desloratadine], the 3D7 was 81.1.

Regarding `C[C@@H]1[C@H](O)[C@@H](C)/C=C/C=C/C=C/C=C/C=C/C=C/C=C/[C@H](O[C@@H]2O[C@H](C)[C@@H](O)[C@H](N)[C@@H]2O)C[C@@H]2O[C@](O)(C[C@@H](O)C[C@@H](O)[C@H](O)CC[C@@H](O)C[C@@H](O)CC(=O)O[C@H]1C)C[C@H](O)[C@H]2C(=O)O` [Amphotericin B], the 3D7 is 59.2.

On to `Cc1c2oc3c(C)ccc(C(=O)N[C@@H]4C(=O)N[C@H](C(C)C)C(=O)N5CCC[C@H]5C(=O)N(C)CC(=O)N(C)[C@@H](C(C)C)C(=O)O[C@@H]4C)c3nc-2c(C(=O)N[C@@H]2C(=O)N[C@H](C(C)C)C(=O)N3CCC[C@H]3C(=O)N(C)CC(=O)N(C)[C@@H](C(C)C)C(=O)O[C@@H]2C)c(N)c1=O` [Dactinomycin] (I: T[dV]P[Sar][NMeV] / II: T[dV]P[Sar][NMeV]; ester I:1-I:C, II:1-II:C; linker I:N-II:N via Actinocin(9to1)), for which the 3D7 is given as 99.2.

For `CO[C@H]1C[C@@H]2CC[C@@H](C)[C@@](O)(O2)C(=O)C(=O)N2CCCC[C@H]2C(=O)O[C@H]([C@H](C)C[C@@H]2CC[C@@H](O)[C@H](OC)C2)CC(=O)[C@H](C)/C=C(\C)[C@@H](O)[C@@H](OC)C(=O)[C@H](C)C[C@H](C)/C=C/C=C/C=C/1C` [Rapamycin], the 3D7 was 51.4.

On to `COc1ccc2cc3[n+](cc2c1OC)CCc1cc2c(cc1-3)OCO2` [Berberine], for which the 3D7 is recorded as 98.2.

Take `C1CCC(C(CC2CCCCN2)C2CCCCC2)CC1.O=C(O)/C=C\C(=O)O` (stereo not drawn) [Perhexilline maleate]: the 3D7 was 97.5.

For `C[C@@H]1CC[C@H]2[C@@H](C)C(=O)O[C@@H]3O[C@@]4(C)CC[C@@H]1[C@]32OO4` [Artemisinin], the 3D7 is on record as 99.1.

As to `CC[C@@]1(O)C[C@H](O[C@H]2C[C@H](N(C)C)[C@H](O[C@H]3C[C@H](O)[C@H](O[C@H]4CCC(=O)[C@H](C)O4)[C@H](C)O3)[C@H](C)O2)c2c(cc3c(c2O)C(=O)c2c(O)cccc2C3=O)[C@H]1C(=O)OC` [Aclarubicin], the 3D7 is listed as 99.6.

Consider `CC[C@@H](C(=O)[C@@H](C)[C@@H](O)[C@H](C)CCc1ccc(C)c(O)c1C(=O)O)[C@H]1O[C@](CC)([C@H]2CC[C@](O)(CC)[C@H](C)O2)C[C@@H]1C` [Lasalocid A], for which the 3D7 is listed as 98.2.

As for `CO[C@@H]1[C@H](OC(=O)NC(=O)CCl)CC[C@]2(CO2)[C@H]1[C@@]1(C)O[C@@H]1CC=C(C)C` [TNP-470], the 3D7 is 67.

On to `CCCCCCCCCCCCCCCC[n+]1ccccc1` [Cetylpyridinium chloride], for which the 3D7 is on record as 98.6.

As for `COc1c(C)c2c(c(O)c1C/C=C(\C)CCC(=O)O)C(=O)OC2` [Mycophenolic acid], the 3D7 is given as 92.7.

With `CN(CCCCCCCCCCN(C)C(=O)Oc1cccc([N+](C)(C)C)c1)C(=O)Oc1cccc([N+](C)(C)C)c1` [Demecarium bromide], the 3D7 is listed as 95.9.

In the case of Meclocycline, the 3D7 was 68.7.

On to `CCOC(=O)NC1=C(N2CC2)C(=O)C(NC(=O)OCC)=C(N2CC2)C1=O` [Diaziquone], for which the 3D7 is recorded as 97.3.

On to `CN(C)C(=O)C(CCN1CCC(O)(c2ccc(Cl)cc2)CC1)(c1ccccc1)c1ccccc1` [Loperamide], for which the 3D7 is reported as 97.7.

On to `CN1[C@@H]2CC[C@H]1C[C@@H](OC(c1ccccc1)c1ccccc1)C2` [Benztropine mesylate], for which the 3D7 is 70.6.

`CCN(CC)CCOc1ccc2c(c1)C(=O)c1cc(OCCN(CC)CC)ccc1-2` [Tilorone]: the 3D7 is given as 98.9.

On to `O=C1[O][Pt]2([NH][C@@H]3CCCC[C@H]3[NH]2)[O]C1=O` [Oxaliplatin], for which the 3D7 is on record as 55.4.

With `CNC(=O)Oc1ccc2c(c1)[C@]1(C)CCN(C)[C@@H]1N2C` [Eserine], the 3D7 is reported as 79.2.

For `O=C1c2c(O)ccc(O)c2C(=O)c2c(NCCNCCO)ccc(NCCNCCO)c21` [Mitoxantrone], the 3D7 was 99.2 and 98.4.

As to `CO[C@@H]1[C@H](O)C[C@@H](O[C@@H]2C[C@H](Oc3cc4cc5c(c(O)c4c(O)c3C)C(=O)[C@@H](O[C@H]3C[C@@H](O[C@H]4C[C@@H](O[C@H]6C[C@](C)(O)[C@@H](OC(C)=O)[C@H](C)O6)[C@H](O)[C@@H](C)O4)[C@H](O)[C@@H](C)O3)[C@H]([C@H](OC)C(=O)[C@@H](O)[C@@H](C)O)C5)O[C@H](C)[C@@H]2OC(C)=O)O[C@@H]1C` [Chromomycin A3], the 3D7 is 98.4.

As to `O=C(c1ccc(OCCN2CCCCC2)cc1)c1c(-c2ccc(O)cc2)sc2cc(O)ccc12` [Raloxifene], the 3D7 is given as 97.1.

`CN1CCC(=C2c3ccccc3Sc3ccccc32)CC1` [Pimethixene]: the 3D7 is reported as 75.5.

Consider `CCCCCCCCCCCC[N+](C)(C)CCOc1ccccc1` [Domiphen bromide], for which the 3D7 is on record as 98.3.

Take `CC[C@H]1OC(=O)[C@H](C)[C@@H](O[C@H]2C[C@@](C)(OC)[C@@H](O)[C@H](C)O2)[C@H](C)[C@@H](O[C@@H]2O[C@H](C)C[C@H](N(C)C)[C@H]2O)[C@](C)(O)C[C@@H](C)CN(C)[C@H](C)[C@@H](O)[C@]1(C)O` [Azithromycin]: the 3D7 is listed as 80.2.

For `Fc1ccc(C(c2ccccc2)(c2ccccc2F)n2ccnc2)cc1` (stereo not drawn) [Flutrimazole], the 3D7 was 85.2.

Consider `CC[C@@H](C(=O)[C@@H](C)[C@@H](O)[C@H](C)[C@@H]1O[C@@H]([C@@H](CC)C(=O)O)CC[C@@H]1C)[C@H]1O[C@]2(C=C[C@@H](O)[C@]3(CC[C@@](C)([C@H]4CC[C@](O)(CC)[C@H](C)O4)O3)O2)[C@H](C)C[C@@H]1C` [Salinomycin], for which the 3D7 is 99.1.

Take `C=CC[N+]1([C@H]2C[C@H]3[C@@H]4CC[C@H]5C[C@H](O)[C@@H](N6CCOCC6)C[C@]5(C)[C@H]4CC[C@]3(C)[C@H]2OC(C)=O)CCCC1` [Rocuronium bromide]: the 3D7 was 52.6.

Take `CN(C)c1ccc2nc3ccc(=[N+](C)C)cc-3sc2c1` [Methylene blue]: the 3D7 was 98.

For `COc1cc(NC(C)CCCN)c2ncccc2c1` (stereo not drawn) [Primaquine], the 3D7 is listed as 99.1.

With `S=c1[nH]cnc2nc[nH]c12` [Mercaptopurine], the 3D7 was 91.8.

Regarding `CC(C)NCC(O)c1ccc2ccccc2c1` (stereo not drawn) [Pronetalol], the 3D7 is on record as 95.3.

With `O=c1[nH]cc(F)c(=O)[nH]1` [Fluorouracil], the 3D7 is 89.2.

`CC[C@H]1CN2CCc3cc(OC)c(OC)cc3[C@@H]2C[C@@H]1C[C@H]1NCCc2cc(OC)c(OC)cc21` [Emetine]: the 3D7 is reported as 98.3.

Take `CC/C(=C(\c1ccccc1)c1ccc(OCCN(C)C)cc1)c1ccccc1` [Tamoxifen]: the 3D7 is recorded as 97.5.

As to `CCCCCCCCCCCCCCCC[N+](C)(C)CCN(Cc1ccc(OC)cc1)c1ncccn1` [Thonzonium bromide], the 3D7 was 97.5.
